Assay results as given in patent US4792607A, “5-fluoro-3,4-dihydro-2,4-dioxo-N-(3-indolyl)-1(2H)-pyrimidinecarboxamides” (Chisso Corporation, priority 1986, dated 1988).

Columns and labels:
[1] = system: Leukosis cells of P-388 mouse; test: Antitumor Effect Test (P-388 leukemia grafted into the abdomen of mice, ratio of survival days T/C); type: in vivo; conditions: dosed into the abdomen successively for 5 days, P-388 in CDF1 or BDF1 mouse
Text: [Antitumor Effect Test] Leukosis cells of P-388 mouse of 1×10^6 /mouse were grafted into the abdomen of CDF1 or BDF1 mouse, and the fixed quantity of the compound of this invention was successively dosed into the abdomen for 5 days. Each 6 mice per dose level as test groups and 30~33 mice as control groups were used. [formula]

[2] = Acute Toxicity Test (LD50); conditions: in vivo
[3] = Mus musculus, P388, ip, 120 h, 30 mg/kg

NS(=O)(=O)c1ccc(NC(=O)NCCCCCCNC(=O)n2cc(F)c(=O)[nH]c2=O)cc1 [Experiment 20]
response vs control in vivo at 30 mg/kg [1, 3]: 95% | response vs control in vivo at 60 mg/kg ([1]; Mus musculus, P388, ip, 120 h): 110% | response vs control in vivo at 120 mg/kg ([1]; Mus musculus, P388, ip, 120 h): 111% | response vs control in vivo at 240 mg/kg ([1]; Mus musculus, P388, ip, 120 h): 112% | LD50 [2]: > 240 mg/kg

O=C(Nc1c[nH]c2ccccc12)n1cc(F)c(=O)[nH]c1=O [Experiment 3]
response vs control in vivo at 30 mg/kg [1, 3]: 123% | response vs control in vivo at 60 mg/kg ([1]; Mus musculus, P388, ip, 120 h): 135% | response vs control in vivo at 120 mg/kg ([1]; Mus musculus, P388, ip, 120 h): 136% | response vs control in vivo at 400 mg/kg ([1]; Mus musculus, P388, ip, 120 h): 153% | LD50 [2]: > 400 mg/kg

O=C(Nc1cccs1)n1cc(F)c(=O)[nH]c1=O [Experiment 1]
T/C (ratio of survival days) ([1]; 30 mg/kg): 129% | response vs control in vivo at 30 mg/kg [1, 3]: 129% | response vs control in vivo at 60 mg/kg ([1]; Mus musculus, P388, ip, 120 h): 138% | LD50 [2]: > 240 mg/kg

O=C(NCC[n+]1ccccc1)n1cc(F)c(=O)[nH]c1=O [Experiment 14, 5-Fluoro-3,4-dihydro-2,4-dioxo-N-[2-(1-pyridino)ethyl]-1(2H-pyrimidinecarboxamide chloride]
response vs control in vivo at 15 mg/kg ([1]; Mus musculus, P388, ip, 120 h): 169% | response vs control in vivo at 30 mg/kg [1, 3]: 171% | response vs control in vivo at 60 mg/kg ([1]; Mus musculus, P388, ip, 120 h): 215% | LD50 [2]: 120 mg/kg

O=C(NCCCCCCNC(=O)n1cc(F)c(=O)[nH]c1=O)Nc1ccccn1 [Experiment 19]
response vs control in vivo at 60 mg/kg ([1]; Mus musculus, P388, ip, 120 h): 154% | response vs control in vivo at 120 mg/kg ([1]; Mus musculus, P388, ip, 120 h): 164% | LD50 [2]: > 240 mg/kg

O=C(NCCCCCCNC(=O)n1cc(F)c(=O)[nH]c1=O)NNC(=O)c1ccncc1 [Experiment 23]
response vs control in vivo at 30 mg/kg [1, 3]: 109% | response vs control in vivo at 60 mg/kg ([1]; Mus musculus, P388, ip, 120 h): 119% | response vs control in vivo at 120 mg/kg ([1]; Mus musculus, P388, ip, 120 h): 124% | response vs control in vivo at 240 mg/kg ([1]; Mus musculus, P388, ip, 120 h): 138% | LD50 [2]: > 240 mg/kg

O=C(NCNC(=O)n1cc(F)c(=O)[nH]c1=O)c1ccccc1 [Experiment 13]
response vs control in vivo at 30 mg/kg [1, 3]: 117% | response vs control in vivo at 60 mg/kg ([1]; Mus musculus, P388, ip, 120 h): 132% | response vs control in vivo at 120 mg/kg ([1]; Mus musculus, P388, ip, 120 h): 147% | LD50 [2]: 240 mg/kg

O=C(NCc1c[nH]c2ccccc12)n1cc(F)c(=O)[nH]c1=O [Experiment 4]
response vs control in vivo at 30 mg/kg [1, 3]: 117% | response vs control in vivo at 60 mg/kg ([1]; Mus musculus, P388, ip, 120 h): 115% | response vs control in vivo at 120 mg/kg ([1]; Mus musculus, P388, ip, 120 h): 118% | response vs control in vivo at 400 mg/kg ([1]; Mus musculus, P388, ip, 120 h): 128% | LD50 [2]: > 400 mg/kg

O=C(NCCC[n+]1ccccc1)n1cc(F)c(=O)[nH]c1=O [Experiment 17, 5-Fluoro-3,4-dihydro-2,4-dioxo-N-[3-(1-pyridinio)propyl]-1(2H-pyrimidinecarboxamide chloride]
response vs control in vivo at 30 mg/kg [1, 3]: 130% | response vs control in vivo at 60 mg/kg ([1]; Mus musculus, P388, ip, 120 h): 138% | LD50 [2]: 240 mg/kg

O=C(Nc1ccc[n+]([O-])c1)n1cc(F)c(=O)[nH]c1=O [Experiment 2]
response vs control in vivo at 15 mg/kg ([1]; Mus musculus, P388, ip, 120 h): 127% | response vs control in vivo at 30 mg/kg [1, 3]: 149% | response vs control in vivo at 60 mg/kg ([1]; Mus musculus, P388, ip, 120 h): 166% | LD50 [2]: 240 mg/kg

O=C(NCCCCCCNC(=O)n1cc(F)c(=O)[nH]c1=O)Nc1cccnc1 [Experiment 18]
response vs control in vivo at 0.47 mg/kg ([1]; Mus musculus, P388, ip, 120 h, 0.47 mg/kg): 110% | response vs control in vivo at 0.94 mg/kg ([1]; Mus musculus, P388, ip, 120 h, 0.94 mg/kg): 115% | response vs control in vivo at 1.87 mg/kg ([1]; Mus musculus, P388, ip, 120 h, 1.87 mg/kg): 124% | response vs control in vivo at 3.75 mg/kg ([1]; Mus musculus, P388, ip, 120 h, 3.75 mg/kg): 131% | response vs control in vivo at 7.5 mg/kg ([1]; Mus musculus, P388, ip, 120 h): 138% | response vs control in vivo at 15 mg/kg ([1]; Mus musculus, P388, ip, 120 h): 139% | LD50 [2]: > 30 mg/kg

CN(C)CCCNC(=O)NCCCCCCNC(=O)n1cc(F)c(=O)[nH]c1=O [Experiment 21]
response vs control in vivo at 15 mg/kg ([1]; Mus musculus, P388, ip, 120 h): 120% | response vs control in vivo at 30 mg/kg [1, 3]: 142% | response vs control in vivo at 60 mg/kg ([1]; Mus musculus, P388, ip, 120 h): 120% | LD50 [2]: 120 mg/kg

O=C(NCCCCC[n+]1ccccc1)n1cc(F)c(=O)[nH]c1=O [Experiment 16, 5-Fluoro-3,4-dihydro-2,4-dioxo-N-[5-(1-pyridinio)pentyl]-1(2H-pyrimidinecarboxamide bromide]
response vs control in vivo at 7.5 mg/kg ([1]; Mus musculus, P388, ip, 120 h): 112% | response vs control in vivo at 15 mg/kg ([1]; Mus musculus, P388, ip, 120 h): 120% | response vs control in vivo at 30 mg/kg [1, 3]: 120% | LD50 [2]: 60 mg/kg

O=C(NCCCCCCNC(=O)n1cc(F)c(=O)[nH]c1=O)NNC(=O)c1cccnc1 [Experiment 22]
response vs control in vivo at 30 mg/kg [1, 3]: 113% | response vs control in vivo at 60 mg/kg ([1]; Mus musculus, P388, ip, 120 h): 113% | response vs control in vivo at 120 mg/kg ([1]; Mus musculus, P388, ip, 120 h): 128% | response vs control in vivo at 400 mg/kg ([1]; Mus musculus, P388, ip, 120 h): 127% | LD50 [2]: > 400 mg/kg
